Data on three compounds can be found in PMC12439166, “Dietary flavonoids form supramolecular assemblies, alter biochemistry, and enhance cell resilience” (Frontiers in Nutrition, 2025).

The structures appear in SMILES notation.

The target in experiment [1] is T1, Histone-Lysine N-methyltransferase (NSD2) (Homo sapiens, UniProt O96028).
T1 sequence (O96028 1-1365): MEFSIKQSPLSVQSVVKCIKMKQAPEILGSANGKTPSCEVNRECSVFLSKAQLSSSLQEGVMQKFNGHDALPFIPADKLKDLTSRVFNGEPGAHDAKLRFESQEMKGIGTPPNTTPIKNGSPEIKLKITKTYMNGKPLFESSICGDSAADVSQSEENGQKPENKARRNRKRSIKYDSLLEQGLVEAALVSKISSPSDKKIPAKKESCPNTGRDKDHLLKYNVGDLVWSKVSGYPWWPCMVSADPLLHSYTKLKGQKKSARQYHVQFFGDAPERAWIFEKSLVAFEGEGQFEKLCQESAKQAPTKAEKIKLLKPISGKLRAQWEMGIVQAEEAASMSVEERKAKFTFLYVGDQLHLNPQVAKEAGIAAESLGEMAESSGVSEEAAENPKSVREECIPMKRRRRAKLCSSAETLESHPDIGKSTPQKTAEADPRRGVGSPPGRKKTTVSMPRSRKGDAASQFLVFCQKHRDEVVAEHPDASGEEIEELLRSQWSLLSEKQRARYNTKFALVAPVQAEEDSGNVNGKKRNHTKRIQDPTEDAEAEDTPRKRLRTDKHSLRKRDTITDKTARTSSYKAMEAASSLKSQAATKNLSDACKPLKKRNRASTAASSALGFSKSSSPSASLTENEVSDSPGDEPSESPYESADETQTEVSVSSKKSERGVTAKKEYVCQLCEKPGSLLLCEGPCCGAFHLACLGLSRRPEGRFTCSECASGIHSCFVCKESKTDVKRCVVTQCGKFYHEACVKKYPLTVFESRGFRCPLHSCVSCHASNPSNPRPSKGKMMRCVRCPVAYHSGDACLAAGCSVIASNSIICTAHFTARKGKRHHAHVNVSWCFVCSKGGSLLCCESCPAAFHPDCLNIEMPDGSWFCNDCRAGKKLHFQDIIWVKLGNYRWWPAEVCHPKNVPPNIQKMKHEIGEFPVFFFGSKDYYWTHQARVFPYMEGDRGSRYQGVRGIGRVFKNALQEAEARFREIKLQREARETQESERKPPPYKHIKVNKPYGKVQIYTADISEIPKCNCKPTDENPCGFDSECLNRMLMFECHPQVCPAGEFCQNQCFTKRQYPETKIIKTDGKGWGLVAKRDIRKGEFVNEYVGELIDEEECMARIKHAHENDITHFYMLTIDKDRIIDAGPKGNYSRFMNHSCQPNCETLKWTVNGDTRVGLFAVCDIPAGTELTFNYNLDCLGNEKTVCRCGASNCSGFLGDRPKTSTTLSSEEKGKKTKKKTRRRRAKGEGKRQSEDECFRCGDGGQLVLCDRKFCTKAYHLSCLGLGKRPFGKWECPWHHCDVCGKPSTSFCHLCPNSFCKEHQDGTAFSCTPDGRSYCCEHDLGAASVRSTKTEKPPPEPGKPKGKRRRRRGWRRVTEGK
As to the kind of experiment: Enzyme activity assay (SAMDI-MS), NSD2. Format: biochemical. As to conditions: 10 concentrations, 5 nM to 100 μM, compounds incubated with enzyme 30 min, result in words. On the procedure: (§1) Enzyme screens were performed by SAMDI Tech (contract research organization); enzyme assays were performed in a 20 μL volume in 384-well low-volume polypropylene microtiter plates (Greiner Bio-One) at room temperature. The enzymes [Arginase 1 (ARG1), Lysine demethylase 4C (KDM4C), MAP/microtubule affinity-regulating kinase 4 (MARK4), Histone-Lysine N-methyltransferase (NSD2), Tyrosine-protein phosphatase non-receptor type 1 (PTP1B), and Sirtuin-3 (SIRT3)] were incubated with compounds for 30 min prior to initiation of the reaction by the addition of substrate and cofactors (if required). Reactions were quenched by the addition of 0.5% formic acid (final) with subsequent neutralization using 1% sodium bicarbonate (final). For SAMDI MS analysis, 2 μL of each reaction was transferred using a 384-channel automated liquid handler to SAMDI biochip arrays functionalized with a neutravidin-presenting self-assembled monolayer. The preparation of SAMDI biochip arrays has been previously described ([41], [42], [49]). The SAMDI arrays were incubated for 1 h in a humidified chamber to allow specific immobilization of the biotinylated substrates and products; they were then purified by washing with ultrafiltered water (50 μL/spot) and dried with compressed air. A matrix comprising α-Cyano-4-hydroxycinnamic acid in 80% acetonitrile: 20% aqueous ammonium citrate (10 mg/mL final) was applied in an automated format by dispensing 50 nL to each spot in the array. SAMDI MS was performed using reflector positive mode on an AB Sciex TOF-TOF 5800 System (AB Sciex, Framingham, MA) with 400 shots/spot analyzed in a random raster sampling. For data analysis, the area under the curves (AUCs) for the product peak and substrate peak were calculated using the TOF/TOF Series Explorer (AB Sciex), and the amount of product formed was calculated using the equation AUC product / (AUC product + AUC Substrate). Negative controls were pre-quenched with 0.5% formic acid (final). Lysozyme assay was performed using the manufacturer’s instructions (Biovision Lysozyme inhibitor screening kit K237). Flavonoids were acquired from Sigma-Aldrich and Seleckchem.
(§2) IC50 values of enzyme inhibition. Inhibition of the enzymes was measured at 10 concentration values in the range of 5 nM to 100 μM for each compound and enzyme, with two technical replicates; the percent inhibition values were determined by SAMDI software. Sigmoidal curves were fitted to the percent inhibition vs log10 (concentration) series, and IC50 values were determined at the crossing point of 50 % inhibition. Manual verification of the fits and the IC50 values was performed. The resulting IC50 values fell into the following categories: (a) within the assayed range of 5nM to 100μM (26 % of fits), (b) IC50 could be extrapolated, IC50 > 100μM (12 % of fits), or (c) fitting was not possible because all values were at baseline (62 % of fits). Compound efficacy ranking. First, for each IC50 value per compound and enzyme, a Z-score was calculated based on the log10 (IC50) value and that of the compounds that produced a successful readout for enzyme i , according to Equation 1: […]

In a further experiment the target is T2, Lysozyme (Gallus gallus, UniProt P00698).
T2 construct: purchased Biovision K237
T2 sequence (P00698 19-147): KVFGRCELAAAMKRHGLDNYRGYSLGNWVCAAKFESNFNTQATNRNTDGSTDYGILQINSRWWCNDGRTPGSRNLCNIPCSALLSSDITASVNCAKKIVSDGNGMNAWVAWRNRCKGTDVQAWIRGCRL
As to the kind of experiment: Lysozyme assay (Biovision Lysozyme inhibitor screening kit K237). It is filed as biochemical. To be noted: 10 concentrations, 5 nM to 100 μM, result in words. On the procedure:
as §1, §2

As to `O=c1c(O)c(-c2ccc(O)c(O)c2)oc2cc(O)cc(O)c12` [quercetin], the “inhibition of enzyme activity, NSD2” value in experiment [1] was “blocked”; in experiment [1] (listed as Quercetin) it was “inhibited”; in experiment [1] (listed as Quercitin), “concentration-dependent inhibition”. Besides, the “inhibition of enzyme activity, Lysozyme” value at Lysozyme was “blocked”; on Lysozyme (listed as Quercetin), “inhibited”; at Lysozyme (listed as Quercitin), “concentration-dependent inhibition”.
As to `C[C@@H]1O[C@@H](Oc2c(-c3ccc(O)c(O)c3)oc3cc(O)cc(O)c3c2=O)[C@H](O)[C@H](O)[C@H]1O` [quercitrin], the “inhibition of enzyme activity, NSD2” value in experiment [1] is listed as “blocked”. In addition, at Lysozyme, the “inhibition of enzyme activity, Lysozyme” value was “blocked”.
As for `O=c1c(O[C@@H]2O[C@H](CO)[C@@H](O)[C@H](O)[C@H]2O)c(-c2ccc(O)c(O)c2)oc2cc(O)cc(O)c12` [isoquercitrin], the “inhibition of enzyme activity, NSD2” value in experiment [1] was “blocked”. Further, at Lysozyme, the “inhibition of enzyme activity, Lysozyme” value is recorded as “blocked”.
